Results as given in patent US12281122B1, “PI3K inhibitors” (Cogent Biosciences, Inc., priority 2023, dated 2025).

Legend:
[1] = test system: T47D (PI3Kα-H1047R) cell line; test: HTRF phospho-AKT(S473) cell assay in T47D cells; assay type: cell-based, human; details: Homo sapiens; HTRF phospho-AKT(S473), T47D (PI3Kα-H1047R) cells, 2 hours compound incubation
Outline: (§1)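 HTRF read-out of phospho-AKT(S473) in lysates gave IC50 values after 2 h compound exposure at 37° C. Dose series was 12 points at 1:3, topping at 5 μM for T47D and 10 μM for SKBR3. Only SKBR3 received 70 ng/ml PDGF-BB during the last 15 minutes.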

[2] = test system: SKBR3 (PI3Kα-Wild Type) cell line; test: HTRF phospho-AKT(S473) cell assay in SKBR3 cells; assay type: cell-based, human; details: Homo sapiens, SK-BR-3; HTRF phospho-AKT(S473), SKBR3 (PI3Kα-Wild Type) cells, 2 hours compound incubation, PDGF-BB stimulated
Outline: as §1

| SMILES | IC50 [1] | IC50 [2] |
| --- | --- | --- |
| Cc1cc([C@@H](C)Nc2ccc(Cl)nc2C(=O)NS(C)(=O)=O)c2nc(N3CC[C@@H](Oc4ccc(F)cn4)C3)n(C)c(=O)c2c1 [Compound 713, 6-chloro-3-(((R)-1-(2-((R)-3-((5-fluoropyridin-2-yl)oxy)pyrrolidin-1-yl)-3,6-dimethyl-4-oxo-3,4-dihydroquinazolin-8-yl)ethyl)amino)-N-(methylsulfonyl) picolinamide] | 0.25 to 0.5 µM | 1 to 5 µM |
| Cc1cc([C@@H](C)Nc2ccc(Cl)nc2C(=O)NS(C)(=O)=O)c2nc(N3CCN(c4cnccn4)CC3)n(C)c(=O)c2c1 [Compound 714, (R)-6-chloro-3-((1-(3,6-dimethyl-4-oxo-2-(4-(pyrazin-2-yl)piperazin-1-yl)-3,4-dihydroquinazolin-8-yl)ethyl)amino)-N-(methylsulfonyl) picolinamide] | < 0.25 µM | 1 to 5 µM |
| Cc1cc([C@@H](C)Nc2ccc(Cl)nc2C(=O)NS(C)(=O)=O)c2nc(N3CCC(c4cc(C)[nH]n4)CC3)n(C)c(=O)c2c1 [Compound 715, (R)-6-chloro-3-((1-(3,6-dimethyl-2-(4-(5-methyl-1H-pyrazol-3-yl)piperidin-1-yl)-4-oxo-3,4-dihydroquinazolin-8-yl)ethyl)amino)-N-(methylsulfonyl) picolinamide] | < 0.25 µM | 1 to 5 µM |
| Cc1cc([C@@H](C)Nc2ccc(Cl)nc2C(=O)NS(C)(=O)=O)c2nc(N3CCC(n4cc(C)nn4)CC3)n(C)c(=O)c2c1 [Compound 716, (R)-6-chloro-3-((1-(3,6-dimethyl-2-(4-(4-methyl-1H-1,2,3-triazol-1-yl)piperidin-1-yl)-4-oxo-3,4-dihydroquinazolin-8-yl)ethyl)amino)-N-(methylsulfonyl) picolinamide] | < 0.25 µM | 1 to 5 µM |
| Cc1cc([C@@H](C)Nc2ccc(Cl)nc2C(=O)NS(C)(=O)=O)c2nc(N3CCC(c4n[nH]cc4Cl)CC3)n(C)c(=O)c2c1 [Compound 717, (R)-6-chloro-3-((1-(2-(4-(4-chloro-1H-pyrazol-3-yl)piperidin-1-yl)-3,6-dimethyl-4-oxo-3,4-dihydroquinazolin-8-yl)ethyl)amino)-N-(methylsulfonyl) picolinamide] | 0.25 to 0.5 µM | ≥ 5 µM |
| COc1cc(N2CCN(c3nc4c([C@@H](C)Nc5ccc(Cl)nc5C(=O)NS(C)(=O)=O)cc(C)cc4c(=O)n3C)CC2)nc(C)n1 [Compound 718, (R)-6-chloro-3-((1-(2-(4-(6-methoxy-2-methylpyrimidin-4-yl)piperazin-1-yl)-3,6-dimethyl-4-oxo-3,4-dihydroquinazolin-8-yl)ethyl)amino)-N-(methylsulfonyl) picolinamide] | 0.25 to 0.5 µM | ≥ 5 µM |
| Cc1cc([C@@H](C)Nc2ccc(Cl)nc2C(=O)NS(C)(=O)=O)c2nc(N3CCC(c4ncnn4C(C)C)CC3)n(C)c(=O)c2c1 [Compound 719, (R)-6-chloro-3-((1-(2-(4-(1-isopropyl-1H-1,2,4-triazol-5-yl)piperidin-1-yl)-3,6-dimethyl-4-oxo-3,4-dihydroquinazolin-8-yl)ethyl)amino)-N-(methylsulfonyl) picolinamide] | 0.25 to 0.5 µM | ≥ 5 µM |
| COc1ncc(F)c(N2CCN(c3nc4c([C@@H](C)Nc5ccc(Cl)nc5C(=O)NS(C)(=O)=O)cc(C)cc4c(=O)n3C)CC2)n1 [Compound 720, (R)-6-chloro-3-((1-(2-(4-(5-fluoro-2-methoxypyrimidin-4-yl)piperazin-1-yl)-3,6-dimethyl-4-oxo-3,4-dihydroquinazolin-8-yl)ethyl)amino)-N-(methylsulfonyl) picolinamide] | < 0.25 µM | 1 to 5 µM |
| COc1cc([C@H]2[C@@H]3CN(c4nc5c([C@@H](C)Nc6ccc(Cl)nc6C(=O)NS(C)(=O)=O)cc(C)cc5c(=O)n4C)C[C@@H]32)n[nH]1 [Compound 722, 6-chloro-3-(((R)-1-(2-((1R,5S,6R)-6-(5-methoxy-1H-pyrazol-3-yl)-3-azabicyclo[3.1.0]hexan-3-yl)-3,6-dimethyl-4-oxo-3,4-dihydroquinazolin-8-yl)ethyl)amino)-N-(methylsulfonyl) picolinamide] | 0.25 to 0.5 µM | 1 to 5 µM |
| Cc1cc([C@@H](C)Nc2ccc(Cl)nc2C(=O)NS(C)(=O)=O)c2nc(N3CCC(c4nc(C)n(C(F)F)n4)CC3)n(C)c(=O)c2c1 [Compound 723, (R)-6-chloro-3-((1-(2-(4-(1-(difluoromethyl)-5-methyl-1H-1,2,4-triazol-3-yl)piperidin-1-yl)-3,6-dimethyl-4-oxo-3,4-dihydroquinazolin-8-yl)ethyl)amino)-N-(methylsulfonyl) picolinamide] | 0.25 to 0.5 µM | 1 to 5 µM |
| Cc1cc([C@@H](C)Nc2ccc(Cl)nc2C(=O)NS(C)(=O)=O)c2nc(N3CCC(c4nc(C)nn4C(F)F)CC3)n(C)c(=O)c2c1 [Compound 724, (R)-6-chloro-3-((1-(2-(4-(1-(difluoromethyl)-3-methyl-1H-1,2,4-triazol-5-yl)piperidin-1-yl)-3,6-dimethyl-4-oxo-3,4-dihydroquinazolin-8-yl)ethyl)amino)-N-(methylsulfonyl) picolinamide] | 0.25 to 0.5 µM | 1 to 5 µM |
| Cc1cc([C@@H](C)Nc2ccc(Cl)nc2C(=O)NS(C)(=O)=O)c2nc(N3CCC(c4nnc(C)n4C(F)F)CC3)n(C)c(=O)c2c1 [Compound 725, (R)-6-chloro-3-((1-(2-(4-(4-(difluoromethyl)-5-methyl-4H-1,2,4-triazol-3-yl)piperidin-1-yl)-3,6-dimethyl-4-oxo-3,4-dihydroquinazolin-8-yl)ethyl)amino)-N-(methylsulfonyl) picolinamide] | 0.25 to 0.5 µM | 1 to 5 µM |
| Cc1cc([C@@H](C)Nc2ccc(Cl)nc2C(=O)NS(C)(=O)=O)c2nc(N3C[C@@H]4C[C@H]3CN4c3nccnc3C)n(C)c(=O)c2c1 [Compound 726, 6-chloro-3-(((R)-1-(3,6-dimethyl-2-((1S,4S)-5-(3-methylpyrazin-2-yl)-2,5-diazabicyclo[2.2.1]heptan-2-yl)-4-oxo-3,4-dihydroquinazolin-8-yl)ethyl)amino)-N-(methylsulfonyl) picolinamide] | 0.25 to 0.5 µM | 1 to 5 µM |
| Cc1cc([C@@H](C)Nc2ccc(Cl)nc2C(=O)NS(C)(=O)=O)c2nc(N3CCN(c4nc(C)ncc4Cl)CC3)n(C)c(=O)c2c1 [Compound 727, (R)-6-chloro-3-((1-(2-(4-(5-chloro-2-methylpyrimidin-4-yl)piperazin-1-yl)-3,6-dimethyl-4-oxo-3,4-dihydroquinazolin-8-yl)ethyl)amino)-N-(methylsulfonyl) picolinamide] | 0.25 to 0.5 µM | 1 to 5 µM |
| Cc1cc([C@@H](C)Nc2ccc(Cl)nc2C(=O)NS(C)(=O)=O)c2nc(N3CCC(c4ncc(C)o4)CC3)n(C)c(=O)c2c1 [Compound 728, (R)-6-chloro-3-((1-(3,6-dimethyl-2-(4-(5-methyloxazol-2-yl)piperidin-1-yl)-4-oxo-3,4-dihydroquinazolin-8-yl)ethyl)amino)-N-(methylsulfonyl) picolinamide] | 0.25 to 0.5 µM | 1 to 5 µM |
| COc1nc(C)cc(N2CCN(c3nc4c([C@@H](C)Nc5ccc(Cl)nc5C(=O)NS(C)(=O)=O)cc(C)cc4c(=O)n3C)CC2)n1 [Compound 729, (R)-6-chloro-3-((1-(2-(4-(2-methoxy-6-methylpyrimidin-4-yl)piperazin-1-yl)-3,6-dimethyl-4-oxo-3,4-dihydroquinazolin-8-yl)ethyl)amino)-N-(methylsulfonyl) picolinamide] | 0.25 to 0.5 µM | 1 to 5 µM |
| Cc1cc([C@@H](C)Nc2ccc(Cl)nc2C(=O)NS(C)(=O)=O)c2nc(N3CCN(c4cc(F)cnc4C)CC3)n(C)c(=O)c2c1 [Compound 730, (R)-6-chloro-3-((1-(2-(4-(5-fluoro-2-methylpyridin-3-yl)piperazin-1-yl)-3,6-dimethyl-4-oxo-3,4-dihydroquinazolin-8-yl)ethyl)amino)-N-(methylsulfonyl) picolinamide] | 0.25 to 0.5 µM | 1 to 5 µM |
| [2H]C([2H])([2H])n1ccc([C@H]2[C@@H]3CN(c4nc5c([C@@H](C)Nc6ccc(Cl)nc6C(=O)NS(C)(=O)=O)cc(C)cc5c(=O)n4CC)C[C@@H]32)n1 [Compound 731, 6-chloro-3-(((R)-1-(3-ethyl-6-methyl-2-((1R,5S,6R)-6-(1-(methyl-d3)-1H-pyrazol-3-yl)-3-azabicyclo[3.1.0]hexan-3-yl)-4-oxo-3,4-dihydroquinazolin-8-yl)ethyl)amino)-N-(methylsulfonyl) picolinamide] | < 0.25 µM | 1 to 5 µM |
| CCn1c(N2Cc3cn(CC(F)(F)F)nc3C2)nc2c([C@@H](C)Nc3ccc(Cl)nc3C(=O)NS(C)(=O)=O)cc(C)cc2c1=O [Compound 732, (R)-6-chloro-3-((1-(3-ethyl-6-methyl-4-oxo-2-(2-(2,2,2-trifluoroethyl)-2,6-dihydropyrrolo[3,4-c]pyrazol-5(4H)-yl)-3,4-dihydroquinazolin-8-yl)ethyl)amino)-N-(methylsulfonyl) picolinamide] | < 0.25 µM | 1 to 5 µM |
| CCn1c(N2Cc3cnn(CC(F)(F)F)c3C2)nc2c([C@@H](C)Nc3ccc(Cl)nc3C(=O)NS(C)(=O)=O)cc(C)cc2c1=O [Compound 733, (R)-6-chloro-3-((1-(3-ethyl-6-methyl-4-oxo-2-(1-(2,2,2-trifluoroethyl)-4,6-dihydropyrrolo[3,4-c]pyrazol-5(1H)-yl)-3,4-dihydroquinazolin-8-yl)ethyl)amino)-N-(methylsulfonyl) picolinamide] | 0.5 to 1 µM | 1 to 5 µM |
